Results from patent US7192906B2, “Substituted pyrazole derivatives, production process thereof, and herbicide compositions containing the derivatives” (SDS Biotech K.K., priority 2001, dated 2007).

What was measured:
Type in all cases: in vivo
Setaria viridis [1] = assay: Test Example 2 upland soil treatment; conditions: Table 5, upland soil treatment, index 0-5
Method: (§1) A plastic pot of 130 cm^2 was filled with upland soil. Subsequently, weed seeds of Setaria viridis, Digitaria adscendens, Chenopodium album and Stellaria media, and crop seeds of soybean (Glycine max) and wheat (Triticum aestivum), were sowed and covered with soil of about 1 cm thickness. On the next day after the sowing, the wettable powder prepared in Formulation Example 1 was diluted with water such that the amount of the active ingredient became 1 kg per hectare, and then uniformly applied to the soil surface. On the 21st day after the application, observation and evaluation were carried out according to the aforesaid criteria.
(§2) Herbicidal activity was evaluated based on the following criteria.
(§3) • 5: herbicidal effect of not less than 90%, or phytotoxicity of 90% or more • 4: herbicidal effect of not less than 70% and less than 90%, or phytotoxicity of 70% or more and less than 90% • 3: herbicidal effect of not less than 50% and less than 70%, or phytotoxicity of 50% or more and less than 70% • 2: herbicidal effect of not less than 30% and less than 50%, or phytotoxicity of 30% or more and less than 50% • 1: herbicidal effect of not less than 10% and less than 30%, or phytotoxicity of 10% or more and less than 30% • 0: herbicidal effect of not less than 0% and less than 10%, or phytotoxicity of 0% or more and less than 10%

Stellaria media [2] = assay: Test Example 2 upland soil treatment; conditions: Table 5, upland soil treatment, index 0-5
Method: as §1, §2, §3

Digitaria adscendens [3] = assay: Test Example 2 upland soil treatment; conditions: Table 5, upland soil treatment, index 0-5
Method: as §1, §2, §3

Chenopodium album [4] = assay: Test Example 2 upland soil treatment; conditions: Table 5, upland soil treatment, index 0-5
Method: as §1, §2, §3

Setaria viridis [5] = assay: Test Example 1 upland field foliage treatment; conditions: Table 4, upland field foliage treatment, index 0-5
Method: as §1, with “14th” for “next”, “plant leaf surfaces.” for “soil surface.”, “criteria described below.” for “aforesaid criteria.”
as §2, §3

Stellaria media [6] = assay: Test Example 1 upland field foliage treatment; conditions: Table 4, upland field foliage treatment, index 0-5
Method: as §1, with “14th” for “next”, “plant leaf surfaces.” for “soil surface.”, “criteria described below.” for “aforesaid criteria.”
as §2, §3

Digitaria adscendens [7] = assay: Test Example 1 upland field foliage treatment; conditions: Table 4, upland field foliage treatment, index 0-5
Method: as §1, with “14th” for “next”, “plant leaf surfaces.” for “soil surface.”, “criteria described below.” for “aforesaid criteria.”
as §2, §3

Chenopodium album [8] = assay: Test Example 1 upland field foliage treatment; conditions: Table 4, upland field foliage treatment, index 0-5
Method: as §1, with “14th” for “next”, “plant leaf surfaces.” for “soil surface.”, “criteria described below.” for “aforesaid criteria.”
as §2, §3

soybean (Glycine max) [9] = assay: Test Example 2 upland soil treatment, crop phytotoxicity; conditions: Table 5, upland soil treatment, index 0-5
Method: as §1, §2, §3

[10] = tested on: wheat (Triticum aestivum); assay: as above; conditions: Table 5, upland soil treatment, index 0-5
Method: as §1, §2, §3

soybean (Glycine max) [11] = assay: Test Example 1 upland field foliage treatment, crop phytotoxicity; conditions: Table 4, upland field foliage treatment, index 0-5
Method: as §1, with “14th” for “next”, “plant leaf surfaces.” for “soil surface.”, “criteria described below.” for “aforesaid criteria.”
as §2, §3

[12] = tested on: wheat (Triticum aestivum); assay: as above; conditions: Table 4, upland field foliage treatment, index 0-5
Method: as §1, with “14th” for “next”, “plant leaf surfaces.” for “soil surface.”, “criteria described below.” for “aforesaid criteria.”
as §2, §3

SMILES	Herbicidal activity SV: Setaria viridis (Setaria viridis [1])	Herbicidal activity SM: Stellaria media (Stellaria media [2])	Herbicidal activity DA: Digitaria adscendens (Digitaria adscendens [3])	Herbicidal activity CA: Chenopodium album (Chenopodium album [4])	Herbicidal activity SV: Setaria viridis (Setaria viridis [5])	Herbicidal activity SM: Stellaria media (Stellaria media [6])	Herbicidal activity DA: Digitaria adscendens (Digitaria adscendens [7])	Herbicidal activity CA: Chenopodium album (Chenopodium album [8])	Herbicidal activity (phytotoxicity) GM: Soybean (Glycine max) (soybean (Glycine max) [9])	Herbicidal activity (phytotoxicity) TA: Wheat (Triticum aestivum) [10]	Herbicidal activity (phytotoxicity) GM: Soybean (Glycine max) (soybean (Glycine max) [11])	Herbicidal activity (phytotoxicity) TA: Wheat (Triticum aestivum) [12]
CNC(=O)C(Cn1ccc(-c2ccccc2)n1)=NOC [Compound 13]	4 (herbicidal effect of not less than 70% and less than 90%, or phytotoxicity of 70% or more and less than 90%)	5 (herbicidal effect of not less than 90%, or phytotoxicity of 90% or more)	4 (herbicidal effect of not less than 70% and less than 90%, or phytotoxicity of 70% or more and less than 90%)	5 (herbicidal effect of not less than 90%, or phytotoxicity of 90% or more)	3 (herbicidal effect of not less than 50% and less than 70%, or phytotoxicity of 50% or more and less than 70%)	4 (herbicidal effect of not less than 70% and less than 90%, or phytotoxicity of 70% or more and less than 90%)	4 (herbicidal effect of not less than 70% and less than 90%, or phytotoxicity of 70% or more and less than 90%)	4 (herbicidal effect of not less than 70% and less than 90%, or phytotoxicity of 70% or more and less than 90%)	0 (herbicidal effect of not less than 0% and less than 10%, or phytotoxicity of 0% or more and less than 10%)	0 (herbicidal effect of not less than 0% and less than 10%, or phytotoxicity of 0% or more and less than 10%)	0 (herbicidal effect of not less than 0% and less than 10%, or phytotoxicity of 0% or more and less than 10%)	0 (herbicidal effect of not less than 0% and less than 10%, or phytotoxicity of 0% or more and less than 10%)
CCOC(CNC(=O)C(Cn1cc(C)c(-c2ccccc2)n1)=NOC)OCC [Compound 28]	3 (herbicidal effect of not less than 50% and less than 70%, or phytotoxicity of 50% or more and less than 70%)	3 (herbicidal effect of not less than 50% and less than 70%, or phytotoxicity of 50% or more and less than 70%)	4 (herbicidal effect of not less than 70% and less than 90%, or phytotoxicity of 70% or more and less than 90%)	4 (herbicidal effect of not less than 70% and less than 90%, or phytotoxicity of 70% or more and less than 90%)	3 (herbicidal effect of not less than 50% and less than 70%, or phytotoxicity of 50% or more and less than 70%)	3 (herbicidal effect of not less than 50% and less than 70%, or phytotoxicity of 50% or more and less than 70%)	3 (herbicidal effect of not less than 50% and less than 70%, or phytotoxicity of 50% or more and less than 70%)	4 (herbicidal effect of not less than 70% and less than 90%, or phytotoxicity of 70% or more and less than 90%)	0 (herbicidal effect of not less than 0% and less than 10%, or phytotoxicity of 0% or more and less than 10%)	0 (herbicidal effect of not less than 0% and less than 10%, or phytotoxicity of 0% or more and less than 10%)	0 (herbicidal effect of not less than 0% and less than 10%, or phytotoxicity of 0% or more and less than 10%)	0 (herbicidal effect of not less than 0% and less than 10%, or phytotoxicity of 0% or more and less than 10%)
CNC(=O)C(Cn1cc(C)c(-c2cccc(C)c2)n1)=NOC [Compound 36]	4 (herbicidal effect of not less than 70% and less than 90%, or phytotoxicity of 70% or more and less than 90%)	5 (herbicidal effect of not less than 90%, or phytotoxicity of 90% or more)	4 (herbicidal effect of not less than 70% and less than 90%, or phytotoxicity of 70% or more and less than 90%)	5 (herbicidal effect of not less than 90%, or phytotoxicity of 90% or more)	4 (herbicidal effect of not less than 70% and less than 90%, or phytotoxicity of 70% or more and less than 90%)	4 (herbicidal effect of not less than 70% and less than 90%, or phytotoxicity of 70% or more and less than 90%)	5 (herbicidal effect of not less than 90%, or phytotoxicity of 90% or more)	5 (herbicidal effect of not less than 90%, or phytotoxicity of 90% or more)	1 (herbicidal effect of not less than 10% and less than 30%, or phytotoxicity of 10% or more and less than 30%)	0 (herbicidal effect of not less than 0% and less than 10%, or phytotoxicity of 0% or more and less than 10%)	0 (herbicidal effect of not less than 0% and less than 10%, or phytotoxicity of 0% or more and less than 10%)	0 (herbicidal effect of not less than 0% and less than 10%, or phytotoxicity of 0% or more and less than 10%)
CNC(=O)C(Cn1cc(C)c(-c2cccc(Cl)c2)n1)=NOC [Compound 46]	5 (herbicidal effect of not less than 90%, or phytotoxicity of 90% or more)	5 (herbicidal effect of not less than 90%, or phytotoxicity of 90% or more)	5 (herbicidal effect of not less than 90%, or phytotoxicity of 90% or more)	5 (herbicidal effect of not less than 90%, or phytotoxicity of 90% or more)	5 (herbicidal effect of not less than 90%, or phytotoxicity of 90% or more)	5 (herbicidal effect of not less than 90%, or phytotoxicity of 90% or more)	5 (herbicidal effect of not less than 90%, or phytotoxicity of 90% or more)	5 (herbicidal effect of not less than 90%, or phytotoxicity of 90% or more)	1 (herbicidal effect of not less than 10% and less than 30%, or phytotoxicity of 10% or more and less than 30%)	0 (herbicidal effect of not less than 0% and less than 10%, or phytotoxicity of 0% or more and less than 10%)	0 (herbicidal effect of not less than 0% and less than 10%, or phytotoxicity of 0% or more and less than 10%)	0 (herbicidal effect of not less than 0% and less than 10%, or phytotoxicity of 0% or more and less than 10%)
CNC(=O)C(Cn1cc(C)c(-c2ccc(C#N)cc2)n1)=NOC [Compound 51]	4 (herbicidal effect of not less than 70% and less than 90%, or phytotoxicity of 70% or more and less than 90%)	4 (herbicidal effect of not less than 70% and less than 90%, or phytotoxicity of 70% or more and less than 90%)	4 (herbicidal effect of not less than 70% and less than 90%, or phytotoxicity of 70% or more and less than 90%)	4 (herbicidal effect of not less than 70% and less than 90%, or phytotoxicity of 70% or more and less than 90%)					0 (herbicidal effect of not less than 0% and less than 10%, or phytotoxicity of 0% or more and less than 10%)	0 (herbicidal effect of not less than 0% and less than 10%, or phytotoxicity of 0% or more and less than 10%)		
